# Results reported in patent US20220170911A1, “CELL CONSTRUCT AND CELL CONSTRUCT PRODUCTION METHOD” (priority 2019, published 2022).
# Experiments:
# Type in all cases: cell-based, human
# [1] = test system: tissue product including no vascular endothelial cell; test: Evaluation of glucose uptake (NBD-modified glucose fluorescence) with uptake inhibitor and promoter; settings: 125 μM apigenin and/or 10 μg/mL insulin in DMEM with 0.1 mg/mL NBD-modified glucose; day 7 tissue product; 20-135 minutes; control medium defined as 100%; FIG. 16/17(a)
# Procedure: A cell structure provided with a vascular network was produced with the same procedure as in Test Example 2, except that 6500 cells of mature adipocytes, 5500 cells of adipose stem cells, 2750 cells of vascular endothelial cells, 0.025 mg of the defibered collagen component (sCMF), 0.015 mg of fibrinogen, and 0.007 U of thrombin were used per tissue. The materials were prepared for 96 wells all at once to afford a gel, which was seeded on each well of a 96-well plate. […] The cell structures were incubated, and fluorescence measurement was carried out after 10 minutes, 30 minutes, 60 minutes, 120 minutes, and 150 minutes. Before the measurement at each timing, the culture medium for a cell structure to be subjected to measurement was substituted with 300 μL of PBS buffer, and the fluorescence was measured with a plate reader (Synergy HTX, manufactured by BioTek Instruments, Inc.) to determine the cumulative value of fluorescence intensity in the image. […] The tissue product was incubated, and fluorescence measurement was carried out after 20 minutes, 45 minutes, 70 minutes, 90 minutes, and 135 minutes in the same manner as in Test Example 10. […]
# [2] = test system: tissue product including no vascular endothelial cell; test: Evaluation of release of glucose and fatty acid taken up, with release promoter; settings: 2 mM isoproterenol, then 30 minutes incubation, day 14 tissue product
# Procedure: A tissue product was produced in the same manner as for the cell structure in Test Example 10, except that no vascular endothelial cell was included, and evaluation was carried out with the tissue product on day 14 after the beginning of formation thereof.
# In order to measure the amount of release of glucose once taken up, incubation was performed on DMEM culture medium supplemented with 0.1 mg/mL NBD-modified glucose as in Test Example 10 for 60 minutes, and then the culture medium was substituted again with 300 μL of DMEM culture medium supplemented with NBD-modified glucose, or with 300 μL of DMEM culture medium supplemented with 2 mM isoproterenol and NBD-modified glucose. Thereafter, incubation was performed for 30 minutes to allow glucose to be released from the cellular tissue, and fluorescence measurement was carried out. […]
# The number of samples for each treatment was 5 […], fluorescence intensity for the tissue product with the culture medium containing no isoproterenol was defined as 100%, and what % of the amount of uptake was released was determined by comparing with fluorescence intensity for the tissue product with the culture medium containing isoproterenol. […]
# [3] = test system: tissue product including no vascular endothelial cell; test: Evaluation of fatty acid uptake (BODIPY-modified fatty acid fluorescence) with uptake promoter; settings: 10 μg/mL insulin in DMEM with 4 μM BODIPY-modified fatty acid; day 7 tissue product; 5, 30, 60 minutes; control without insulin defined as 100%; FIG. 17(b)
# Procedure: A tissue product including no vascular endothelial cell was produced in the same manner as in Test Example 10, and evaluation was carried out with the tissue product on day 7 after the beginning of formation thereof sCMF produced by using a mixture of a sponge fragment of porcine skin-derived collagen I and a sponge fragment of porcine skin-derived collagen III was used.
# A tissue product was incubated in the same manner as in Test Example 10, except that, in place of NBD-modified glucose in Test Example 10, 4 μM BODIPY-modified fatty acid (Invitrogen (R) BODIPY (R) 500/510 Cl, C12 (4,4-Difluoro-5-Methyl-4-Bora-3a,4a-Diaza-s-Indacene-3-Dodecanoi c Acid), Thermo Fisher Scientific) was added to DMEM culture medium, and fluorescence measurement was carried out after 5 minute, 30 minutes, and 60 minutes. Further, 10 μg/mL insulin was added to the DMEM culture medium containing 4 μM BODIPY-modified fatty acid, and fluorescence measurement was carried out in the same manner.
# The number of samples for each treatment was 5 (n=5), and fatty acid uptake in the same control culture medium as in Test Example 10, which contained no insulin, was defined as 100%.
# [4] = test system: cell structure including vascular endothelial cells and tissue product including no vascular endothelial cell; test: Evaluation of effect of uptake inhibitor for fatty acid (BODIPY-modified fatty acid fluorescence); settings: 100 ng/mL TNFα in DMEM with 4 μM BODIPY-modified fatty acid; day 14; 0, 5, 30, 60 minutes; with and without vascular endothelial cells; control without TNFα defined as 100%; FIG. 18
# Procedure: A cell structure including vascular endothelial cells and a tissue product including no vascular endothelial cell were produced in the same manner as in Test Example 10, and evaluation was carried out with the cell structure and tissue product on day 14 after the beginning of formation thereof sCMF produced by using a sponge fragment of porcine skin-derived collagen I was used.
# Into DMEM culture medium containing 4 μM BODIPY-modified fatty acid in place of NBD-modified glucose in (Evaluation of Glucose Uptake) of Test Example 10, 100 ng/mL TNFα as an uptake inhibitor for fatty acid was introduced. The cell structure including vascular endothelial cells and the tissue product including no vascular endothelial cell were each incubated, and fluorescence measurement was carried out after 0 minutes, 5 minutes, 30 minutes, and 60 minutes in the same manner as in Test Example 10. The number of samples for each treatment was 5 (n=5), and fatty acid uptake in the same control culture medium as in Test Example 10, which contained no TNFα, was defined as 100%.
compound,measurement,setting,value
O=c1cc(-c2ccc(O)cc2)oc2cc(O)cc(O)c12 [apigenin],amount of uptake of glucose,[1],reduced
CC(C)NCC(O)c1ccc(O)c(O)c1 (stereo not drawn) [isoproterenol],release of fatty acid taken up,"[2]; 60 minutes uptake of BODIPY-modified fatty acid, FIG. 19(b)",promoted
same,release of glucose taken up,"[2]; 60 minutes uptake of NBD-modified glucose, FIG. 19(a)",promoted
Insulin from bovine pancreas,amount of uptake of glucose,[1],increased
same,amount of fatty acid uptake,[3],promoted
TNFα,amount of uptake of fatty acid,[4],reduced
